Values quoted from earlier work as cited in patent US20050053970A1, “Methods and compositions for identifying peptide aptamers capable of altering a cell phenotype” (priority 2001, published 2005).

Tests used:
mammals = details: in vivo
[1] = molecular target: α/δ and α/γ sites in T. californica electric organ (Tetronarce californica, UniProt P02710+P02714+P02718)
[2] = molecular target: T1, mutant human growth hormone (Thr175 Gly-hGH) and extracellular domain of the hGH receptor (Trp104 Gly-hGHbp) (Homo sapiens, UniProt P01241+P10912, T201G/W122G); details: Thr175 Gly-hGH with Trp104 Gly-hGHbp
T1 construct: the extracellular domain of the hGH receptor (Trp104 Gly-hGHbp)

Row | Compound | effect in mammals (mammals) | activity in T. californica [1] | discrimination between the α/δ and α/γ sites [1] | increase of the affinity of the mutant hormone for its receptor [2]
1 | ICCNPACGPLYSC-NH2 [α-conotoxin SI] | essentially no effect | active | does not distinguish | –
2 | Clc1cnc(C(Cl)(Cl)Cl)[nH]1 [5-chloro-2-trichloromethylimidazole] | – | – | – | more than 1000 fold
3 | ECCNPACGRHYSC-NH2 [α-conotoxin GI] | lethal to mammals at low concentrations | – | finds the α/δ site preferable to the α/γ site | –
